In patent US9012398B2, “Acylated exendin-4 compounds” (priority 2006, dated 2015):
Starred links: 1 amine or outer side, 2 acyl side, 3 side chain; linkers in the order of their positions; H or OH if unused. Residues, ends and D or L forms follow the SMILES beside them. Groups on a side chain read outwards from the residue. *: point of attachment. Palmitoyl(16-(5-tetrazolyl)) = O=C(CCCCCCCCCCCCCCCc1nnn[nH]1)*; γGlu = O=C(O)[C@H](CCC(=O)[*:2])N[*:1]; AEEA = NCCOCCOCC(=O)O

Experiments:
human GLP-1 receptor = target: T1, human GLP-1 receptor (Homo sapiens, UniProt P43220); experiment: Functional receptor assay: cAMP formation in plasma membranes of BHK cells expressing the cloned human GLP-1 receptor (GLP1cAMPma); format: biochemical; settings: cAMP, membranes with human GLP-1 receptor, mean value; read-out: GLP1cAMPma (3693) [EC50 (nM)] Mean Value
T1 construct: expressed in transfected cells; host or cells: BHK cells, clone BHK-467-12A; plasma membrane preparation
In short: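 Membranes from BHK cells expressing human GLP-1 receptor (6 μg) were incubated 3 h at room temperature in Tris/HEPES buffer pH 7.4 with 1 mM ATP, 1 μM GTP and 0.5 mM IBMX. cAMP was quantified by AlphaScreen competition with biotinyl-cAMP. EC50 came from a four-parameter logistic fit.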

db/db mice = experiment: Pharmacodynamic study using db/db mice (blood glucose after subcutaneous dosing); format: in vivo; settings: 30 nmol/kg subcutaneous
Protocol: The efficacy and duration of action were measured after dosing of 30 nmol/kg to db/db mice. Male db/db mice were shipped from Taconic, Denmark at the age of 8-10 weeks. From the time of arrival, the mice were housed under standard conditions but at 24° C. The mice were kept 10 per cage until experimentation with free access to standard chow (Altromin, Brogaarden APS., Denmark) and tap water at a normal day: light cycle (light on at 6 am). […] After this, the mice were euthanized.
After an acclimatisation period of 1 week, the blood glucose was measured by sampling from the tail tip capillary. In brief, 5 μl blood was sampled in heparinised glass capillary tubes and immediately suspended in 250 μl EBIO buffer solution (Eppendorf, Germany) in an 1.5 ml Eppendorf tube. The blood glucose concentration was measured by the glucose oxidase method at the EBIO Plus Auto analyser (Eppendorf, Germany).
The cut of value for blood glucose was 10 mM. When evaluating the mice, it was considered essential, that all 42 mice entering the experiment had blood glucose values above 10 mM, but also that the inter-mice variance was small. Therefore, if many mice were not severely diabetic, whereas some were, the start up of experiments was postponed one week and new basal blood glucose measurements were made.
Based on the basal blood glucose values, the mice were allocated to 7 groups of n=6 with matching group mean blood glucose values.
On the day of testing the basal blood glucose morning values were assessed as described above and the basal body weight of each mouse was assessed. A time 0, the compound was dosed subcutaneously in the scruff of the neck (dosing volume app. 300 μl/50 g mouse).
The blood glucose values were followed up to 48 hours (time 1, 3, 6, 24 and 48 h) and the terminal body weight was assessed.
All data were entered into Graphpad Prism where mean blood glucose and mean delta body weights were calculated.

T1 sequence (P43220 24-463): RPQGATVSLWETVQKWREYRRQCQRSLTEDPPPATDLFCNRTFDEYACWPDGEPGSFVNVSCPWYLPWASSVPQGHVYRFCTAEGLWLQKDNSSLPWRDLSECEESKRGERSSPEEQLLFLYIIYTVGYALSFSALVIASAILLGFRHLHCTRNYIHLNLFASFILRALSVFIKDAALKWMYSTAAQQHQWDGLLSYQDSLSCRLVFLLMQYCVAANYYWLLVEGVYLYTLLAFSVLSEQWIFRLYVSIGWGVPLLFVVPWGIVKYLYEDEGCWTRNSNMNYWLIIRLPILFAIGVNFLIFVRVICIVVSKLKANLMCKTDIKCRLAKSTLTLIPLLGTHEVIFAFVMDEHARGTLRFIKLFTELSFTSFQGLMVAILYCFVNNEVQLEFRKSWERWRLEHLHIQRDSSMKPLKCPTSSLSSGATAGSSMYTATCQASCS

EC50 (human GLP-1 receptor): 0.61 nM
SMILES: CC[C@H](C)[C@H](NC(=O)[C@H](Cc1ccccc1)NC(=O)[C@H](CC(C)C)NC(=O)[C@H](CCCNC(=N)N)NC(=O)[C@@H](NC(=O)[C@H](C)NC(=O)[C@H](CCC(=O)O)NC(=O)[C@H](CCC(=O)O)NC(=O)[C@H](CCC(=O)O)NC(=O)[C@H](CC(C)C)NC(=O)[C@H](CCC(N)=O)NC(=O)[C@H](CCCNC(=N)N)NC(=O)[C@H](CO)NC(=O)[C@H](CC(C)C)NC(=O)[C@H](CC(=O)O)NC(=O)[C@H](CO)NC(=O)[C@@H](NC(=O)[C@H](Cc1ccccc1)NC(=O)[C@@H](NC(=O)CNC(=O)[C@H](CCC(=O)O)NC(=O)CNC(=O)[C@@H](N)Cc1c[nH]cn1)[C@@H](C)O)[C@@H](C)O)C(C)C)C(=O)N[C@@H](CCC(=O)O)C(=O)N[C@@H](Cc1c[nH]c2ccccc12)C(=O)N[C@@H](CC(C)C)C(=O)N[C@@H](CCCNC(=N)N)C(=O)N[C@@H](CC(N)=O)C(=O)NCC(=O)NCC(=O)N1CCC[C@H]1C(=O)N[C@@H](CO)C(=O)N[C@@H](CO)C(=O)N[C@@H](CCCCNC(=O)COCCOCCNC(=O)CC[C@H](NC(=O)CCCCCCCCCCCCCCCc1nnn[nH]1)C(=O)O)C(=O)N[C@@H](C)C(=O)N1CCC[C@H]1C(=O)N1CCC[C@H]1C(=O)N1CCC[C@H]1C(=O)N[C@@H](CO)C(N)=O [Example 9] (H-HGEGTFTSDLSRQLEEEAVRLFIEWLRNGGPSSK([AEEA-γGlu-Palmitoyl(16-(5-tetrazolyl))])APPPS-NH2)
Delta AUC for blood glucose after 30 nmol/kg in db/db mice, 48 hours (db/db mice): −395 ± 222, *** mM × hour
